This is an account of results in patent US6333313A, “Clinical use of oxytocin alone or in combination to treat bone disorders” (Board of Regents, The University of Texas System, priority 1999, dated 2001).

Starred links: 1 amine or outer side, 2 acyl side, 3 side chain; linkers in the order of their positions; H or OH if unused. Positions of bridges follow the written chain, without caps; N, C: chain ends. Non-standard residues stand in square brackets, D forms with d. Residues, ends and D or L forms follow the SMILES beside them. No end group written: not given here. X1 = O=C(CC1(S[*:2])CCCCC1)[*:1]; Orn = NCCC[C@H](N)C(=O)O

The test system of data set [1] is bone formation. The following applies: systemic administration; cited from earlier work.
A further data set concerns rat osteogenic cells. Conditions: in vitro; cited from earlier work.
The subject of another data set is bone; uterus. The following applies: rats; compared with estradiol; cited from earlier work.
Data set [2] concerns bone formation. Conditions: in vivo, high dose; cited from earlier work.
Data set [3] has as its system cortical bone. Conditions: injections with mild exercise; old female rats; cited from earlier work.
In data set [4] the target is T1, OTR (Homo sapiens, UniProt P30559).
T1 sequence (P30559 1-389): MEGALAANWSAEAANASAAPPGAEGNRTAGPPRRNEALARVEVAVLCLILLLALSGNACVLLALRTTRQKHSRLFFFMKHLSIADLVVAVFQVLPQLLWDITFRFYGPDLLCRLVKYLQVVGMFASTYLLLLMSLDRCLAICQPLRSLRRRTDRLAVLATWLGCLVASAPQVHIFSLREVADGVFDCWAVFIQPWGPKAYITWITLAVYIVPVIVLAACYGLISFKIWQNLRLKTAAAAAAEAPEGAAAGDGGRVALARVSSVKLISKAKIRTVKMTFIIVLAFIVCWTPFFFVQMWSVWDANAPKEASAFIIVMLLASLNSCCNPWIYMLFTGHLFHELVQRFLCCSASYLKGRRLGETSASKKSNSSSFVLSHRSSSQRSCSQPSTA
As to the kind of experiment: Intracellular calcium levels, undifferentiated osteoblastic cells. In kind it is cell-based. More on the design: Undifferentiated or differentiated human trabecular bone cells with osteogenic capacity in primary culture express oxytocin receptors (OTRs); endogenous in cells; host or cells: primary human osteoblastic cells from rib trabecular bone explants (undifferentiated, or differentiated in mineralizing medium). Conditions: 10 nM OT. On the procedure:
(§1) FIG. 3A, FIG. 3B and FIG. 3C Intracellular calcium transients after 10 nM oxytocin treatment. (FIG. 3A.) Undifferentiated osteoblastic cells; (FIG. 3B.) differentiated osteoblastic cells; and (FIG. 3C.) Saos-2 cells. Cells were incubated at 37C and treated in the following manner; 100 nM OTA for 1 min, […], wash cells 3 times to remove bound antagonist, 10 min recovery, and then 10 nM OT treatment.
(§2) Cell Culture Conditions: Human osteosarcoma cells (Saos-2) cells were obtained from the ATCC (Rockville, Md.). Human osteoblasts (Cheng et al., 1994; Civitelli et al., 1993) were prepared from explants of cultured rib trabecular. These cells were grown in mineralizing media consisting of DMEM supplemented with 10% fetal bovine serum (FBS), 2% penicillin/streptomycin, dexamethasone (100 nM), ascorbate (50 μg/ml, and β3-glycerophosphate (10 μg/ml) in a humidified tissue culture incubator at 37C under an atmosphere of 5% CO2 and 95% air. These conditions accelerate the osteoblastic modulation of undifferentiated human trabecular bone cells and the production of osteogenic mineralizeable collagen matrix (Cheng et al., Civitelli et al., 1993). To retain undifferentiated osteoblastic phenotype, cells were cultured in the absence of dexamethasone, ascorbate, and β-glycerophosphate. […]
A general note: A change in cytosolic calcium serves as a functional read-out for many receptors and channels.

For data set [5], the target named is T1, OTR. As to the kind of experiment: Intracellular calcium levels, differentiated osteoblastic cells. In kind it is cell-based. More on the design: Undifferentiated or differentiated human trabecular bone cells with osteogenic capacity in primary culture express oxytocin receptors (OTRs); endogenous in cells; host or cells: primary human osteoblastic cells from rib trabecular bone explants (undifferentiated, or differentiated in mineralizing medium). Conditions: 10 nM OT. The procedure: as §1, §2

Data set [6] concerns Undifferentiated and differentiated osteoblastic cells. As to the kind of experiment: PGE2 levels in media of OT-stimulated cells (EIA). Conditions: 100 nM OT, over nontreated controls. In kind it is cell-based, human. On the procedure:
FIG. 4A and FIG. 4B PGE2 levels in media of cells stimulated with 100 nM OT. (FIG. 4A.) Undifferentiated osteoblastic cells and (FIG. 4B.) differentiated osteoblastic cells. Each point is the mean +/- SE of triplicates. * indicates P<0.05 compared to matched basal control.
Prostaglandin E2 (PGE2) levels. PGE2 levels in media were measured using a PGE2 enzyme immunoassay (EIA) system from Amersham Life Sciences (Arlington Heights, Ill.) as previously described (Copland, et al., 1999). The sensitivity of the assay was 2.5 pg/ml with an intraassay coefficient of variation of 6.3% and the interassay coefficient of variation of 6.9%.
Undifferentiated and differentiated osteoblastic cells were tested to determine whether OT could stimulate PGE2 synthesis. Undifferentiated osteoblastic cells that were allowed to come to confluence and maintained for 2 weeks in either 10% FBS/DMEM or in mineralizing medium (differentiated osteoblast), synthesized and released PGE2 into the media in response to 100 nM OT (FIG. 4A and FIG. 4B, respectively).

In data set [7] the target is T1, OTR. As to the kind of experiment: Intracellular calcium levels, Saos-2 cells. It counts as cell-based. The following applies: 10 nM OT. On the procedure: as §1, §2
Data set [8] concerns the target T1, OTR. Description: Whole cell OTR ligand binding, Scatchard analysis, undifferentiated osteoblastic cells. More on the design: Undifferentiated or differentiated human trabecular bone cells with osteogenic capacity in primary culture express oxytocin receptors (OTRs); endogenous in cells; host or cells: primary human osteoblastic cells from rib trabecular bone explants (undifferentiated, or differentiated in mineralizing medium). Conditions: +/- SE. On the procedure: (§3) Cell Culture Conditions: Human osteosarcoma cells (Saos-2) cells were obtained from the ATCC (Rockville, Md.). Human osteoblasts (Cheng et al., 1994; Civitelli et al., 1993) were prepared from explants of cultured rib trabecular. These cells were grown in mineralizing media consisting of DMEM supplemented with 10% fetal bovine serum (FBS), 2% penicillin/streptomycin, dexamethasone (100 nM), ascorbate (50 μg/ml, and β3-glycerophosphate (10 μg/ml) in a humidified tissue culture incubator at 37C under an atmosphere of 5% CO2 and 95% air. These conditions accelerate the osteoblastic modulation of undifferentiated human trabecular bone cells and the production of osteogenic mineralizeable collagen matrix (Cheng et al., Civitelli et al., 1993). To retain undifferentiated osteoblastic phenotype, cells were cultured in the absence of dexamethasone, ascorbate, and β-glycerophosphate. Osteoblast phenotype was verified by alkaline phosphatase activity and mineralization of the extracellular matrix using von Kossa staining. The cells were used on the first passage following initial plating.
(§4) Determination of OTR ligand binding: OTA was monoiodinated as previously described (Hinko and Soloff, 1992). […] The concentration of cellular DNA was determined in parallel, using the Hoechst dye H 33258 and a Hoefer DyNA Quant fluorometer according to the manufacturer's instructions.

Data set [9] deals with T1, OTR. Description: Whole cell OTR ligand binding, Scatchard analysis, Saos-2 cells. Further details: Undifferentiated or differentiated human trabecular bone cells with osteogenic capacity in primary culture express oxytocin receptors (OTRs); endogenous in cells; host or cells: primary human osteoblastic cells from rib trabecular bone explants (undifferentiated, or differentiated in mineralizing medium). The procedure:
as §3, §4

Data set [10] deals with T1, OTR. Description: Whole cell OTR ligand binding, Scatchard analysis, differentiated osteoblastic cells. More on the design: Undifferentiated or differentiated human trabecular bone cells with osteogenic capacity in primary culture express oxytocin receptors (OTRs); endogenous in cells; host or cells: primary human osteoblastic cells from rib trabecular bone explants (undifferentiated, or differentiated in mineralizing medium). The procedure: as §3, §4

In data set [11] the test system is cortical bone. The following applies: ovariectomized rats; cited from earlier work.
Another data set relates to rat osteoblastic cell. The following applies: combined with insulin-like growth factor-1; cited from earlier work.
The test system of data set [12] is bone formation. The following applies: in vivo; cited from earlier work.

For the molecule “IGF-1/IGF BP-3: insulin-like growth factor-1 combined with insulin-like growth factor binding protein-3”, the “effect of IGF-1 on bone formation when combined with IGF BP-3” value in the data set with bone formation [1] is “potentiated”.
In the case of “substance P: a neuropeptide with wide distribution in central and peripheral nervous system (RPKPQQFFGLM; ends and bridges not checked; UniProt P20366 58-68, looked up)”, the cell proliferation entry in the data set with rat osteogenic cells was “increased cell proliferation in a dose dependent fashion”.
`Oc1ccc2c(c1)CC[C@H](c1ccccc1)[C@@H]2c1ccc(OCCN2CCCC2)cc1` [CP-336,156]: the uterine-stimulating effects entry with bone; uterus is “without the uterine-stimulating effects associated with estradiol”.
On to `C=C1/C(=C\C=C2/CCC[C@]3(C)[C@@H]([C@H](C)CCCC(C)(C)O)CC[C@@H]23)C[C@@H](O)C[C@@H]1O` [1,25 dihydroxyvitamin D3], for which, in the data set with bone formation [2], the bone formation result is on record as “stimulates bone formation”.
“Growth Hormone: growth hormone injections”: the “formation and strength of cortical bone” value in the data set with cortical bone [3] was “increase the formation and strength of cortical bone”.
With `CC[C@H](C)[C@@H]1NC(=O)[C@H](Cc2ccc(O)cc2)NC(=O)[C@@H](N)CSSC[C@@H](C(=O)N2CCC[C@H]2C(=O)N[C@@H](CC(C)C)C(=O)NCC(N)=O)NC(=O)[C@H](CC(N)=O)NC(=O)[C@H](CCC(N)=O)NC1=O` [OT, oxytocin], the “rise in [Ca2+]i” value at OTR [4], at OTR [5] and at OTR [7] was “responded within seconds to OT treatment with a rise in [Ca^2+ ]i” each time. The “increase in PGE2 synthesis” value in [6] (15 and 30 minutes) was 2 fold; in data set [6] (by 1 h of OT stimulation), 4-6 fold.
As to `CC[C@H](C)[C@@H]1NC(=O)[C@H](Cc2ccc(OC)cc2)NC(=O)CC2(CCCCC2)SSC[C@@H](C(=O)N2CCC[C@H]2C(=O)N[C@@H](CCCN)C(=O)N[C@@H](Cc2ccc(O)cc2)C(N)=O)NC(=O)[C@H](CC(N)=O)NC(=O)[C@H]([C@@H](C)O)NC1=O` [{^125 I]OTA] (Y(Me)ITNCP[Orn]Y-NH2; linker N-5 via X1), the results for the Bmax at OTR [8], at OTR [9] and on OTR [10] were 5.7+/-0.8 fmol/10 μg DNA, 24.6+/-3.2 fmol/10 μg DNA and 12.3+/-1.4 fmol/10 μg DNA, respectively. Further, the Kd at OTR [8] (read-out: apparent Kd) amounted to 0.132 ± 0.027 nM; at OTR [9] (read-out: apparent Kd) it was 0.15 ± 0.028 nM; at OTR [10] (read-out: apparent Kd), 0.175 ± 0.034 nM.

B1: Parathyroid Hormone: parathyroid hormone (protein, UniProt P01270 32-115, looked up)
Parathyroid hormone: SVSEIQLMHNLGKHLNSMERVEWLRKKLQDVHNFVALGAPLAPRDAGSQRPRKKEDNVLVESHEKSLGEADKADVNVLTKAKSQ
modifications: Parathyroid hormone
On to B1, for which the “femoral length and strength in cortical bone” value in the data set on cortical bone [11] was “dose dependent increase”.

B2: Osteogenic Protein-1: osteogenic protein-1 (protein, UniProt P18075 293-431, looked up)
Bone morphogenetic protein 7: STGSKQRSQNRSKTPKNQEALRMANVAENSSSDQRQACKKHELYVSFRDLGWQDWIIAPEGYAAYYCEGECAFPLNSYMNATNHAIVQTLVHFINPETVPKPCCAPTQLNAISVLYFDDSSNVILKKYRNMVVRACGCH
In the case of B2, the “stimulation of rat osteoblastic cell differentiation and proliferation” value with rat osteoblastic cell is given as “synergistic with insulin-like growth factor-1”. Moreover, in the data set on bone formation [12], the new bone formation entry is recorded as “induces new bone formation”.
